Test results taken from patent US7396835B2, “Process for the preparation of tubulin inhibitors” (Wyeth, priority 2003, dated 2008).
Counter-ions that a name gives are not always drawn.

Experiment: Water uptake and stability of the succinate salt under relative humidity
Type: physicochemical
Settings: about 20° C. to about 30° C.
Procedure: To a suspension of NaH (40.9 g, 1.02 mol, 60% in oil) in anhydrous THF (750 mL) is added 3-methylamino-propan-1-ol (115 g, 1.21 mol) at about 20-30° C. dropwise over 30 min. The mixture is stirred for 30 min. Then, a solution of [5-chloro-6-(2,4,6-trifluoro-phenyl)-[1,2,4]triazolo[1,5-a]pyrimidin-7-yl]-((1S)-2,2,2-trifluoro-1-methyl-ethyl)-amine (150 g, 0.379 mol) in THF (150 mL) is added slowly over 15 min. The mixture is heated to 60° C. and stirred for 16 h, then cooled to 0-6° C. Cold water (1500 mL) is added dropwise while maintain the temperature between 10±3° C. THF is removed by distillation. The reaction mixture is extracted with t-butylmethyl ether (TBME, 2×1000 mL) and to the separated aqueous phase is added in portions succinic acid (296 g, 2.51 mol) is added in portions and followed by addition of TBME (1000 mL). The mixture is cooled to 3±3° C. and stirred for 1 h. The crude solid product is filtered, washed with cold water (150 mL) and TBME (2×400 mL). The wet solid is dissolved into water (2000 mL) at about 75° C. The solution is filtered at 60-70° C. and cooled to 0° C. over 1 h and stirred for 1 h at this temperature. The solid is filtered and dried at 35° C./10 mmHg for 20 h to give a white solid in anhydrous form (175 g, 80%, >99% HPLC area purity and 99% ee). […]

For `CNCCCOc1cc(F)c(-c2c(Cl)nc3ncnn3c2N[C@@H](C)C(F)(F)F)c(F)c1` [Example 4, 5-Chloro-6-{2,6-difluoro-4-[3-(methylamino)propoxy]phenyl}-N-[(1S)-2,2,2-trifluoro-1-methylethyl][1,2,4]triazolo[1,5-a]pyrimidin-7-amine Succinate Salt Dihydrate], the “stability of the dihydrate” value (5%-100% relative humidity) was “stable” and the “water absorbed by the anhydrous compound” value (anhydrous succinate salt, drying dish of 80%-100% relative humidity, 24 h, uptake then stopped) was 5.8 % wt.
